# From patent US20260166113A1, “COMPOSITIONS AND METHODS FOR TREATING RENAL CANCER” (The Regents of the University of Michigan, priority 2022, published 2026)
# Entries after “also recorded” stand apart in the source; their conditions may differ.
# Legend:
# [1] = tested on: 5 RCC cell lines (786-0, 769-P, A-498, Caki-1, Caki-2); test: Kinase inhibition, DIA-MS phosphoproteome of treated RCC cell lines; format: cell-based; settings: treated at calculated IC50 for 1.5 hours; for phosphorylation of signaling-related downstream substrates: DIA-MS
# Method: For in vitro experiments assessing the impact of select kinase inhibition on renal cancer cell models (786-0, 769-P, A-498, Caki-1, and Caki-2), the kinase inhibitors, Adaversotib, Everolimus, Sapanisterib, Gefitinib, and Trametinib were dissolved in dimethyl sulfoxide (DMSO) and subjected to sonication in a water bath at room temperature. Following an assessment of individual cell line growth rates to enable calculation of half maximal inhibitory concentration (IC50), cells were seeded in triplicate at concentrations of either 1,000 cells/well (786-0, 769-P, A-498, Caki-2) or 10,000 cells/well (Caki-1). Post-24 hour seeding, cells were subjected to kinase inhibitors at final concentrations of 1 nm, 10 nM, 50 nM, 100 nM, 500 nM, […], with non-treated cells and DMSO treated cells included as controls. Cell growth was measured on day 1 (kinase inhibitor treatment), day 4, and day 6 using the colorimetric CellTiter 96® Aqueous One Cell Proliferation Solution Assay (MTS) following the manufacturer's instructions. IC50 for each cell line in response to single kinase inhibitor exposure was determined by plotting inhibitor concentration against percent activity relative to DMSO-treated controls and calculating the x-intercept of the linear logarithmic trend line. For phosphoproteomic characterization of renal cell models treated with individual kinase inhibitors, six treatment conditions were devised—control, Adaversotib treatment, Everolimus treatment, Sapanisterib treatment, Gefitinib treatment, and Trametinib treatment—and cells were seeded at ˜5E6 cells/15 cm plate and allowed to reach ˜80% confluency. 30 minutes prior to kinase inhibitor treatment, fresh media was exchanged. Cells were then treated with kinase inhibitors at calculated IC50 values for 1.5 hours. Media was removed and cells were three times with a volume of ice-cold PBS. Cells were scraped using 1.5 mL of ice-cold PBS, transferred to Eppendorf tubes, and spun at 3,000×g for 5 minutes at 4° C. A volume of lysis buffer (8 M urea, 75 mM NaCl, 50 mM Tris, pH 8.0, 1 mM EDTA, […] aprotinin, […] leupeptin, 1 mM PMSF, 10 mM NaF, Phosphatase Inhibitor Cocktail 2 and Phosphatase Inhibitor Cocktail 3 [1:100 dilution], and 20 mM PUGNAc) was added and cells lysed. Subsequent sample preparation and ESI-LC-MS/MS analysis for global proteomic and phosphoproteomic characterization for DIA analysis were performed as described for tissue samples.
# Analysis of the DIA data from the kinase inhibitor study (whole proteome and phosphopeptide enriched data) was performed as described above. For each data type, the libraries were built from the corresponding 30 DIA runs (6 treatments x 5 cell lines) supplemented with 8 or 9 fractionated DDA files for whole proteome and phosphopeptide-enriched samples, respectively. The resulting whole proteome spectral library contained 8882 proteins and 173932 precursors; the phosphopeptide enriched sample library contained 7841 proteins and 101491 precursors (including non-phosphorylated proteins and peptides). After DIA-NN quantification, the final quantification table for the phosphopeptide-enriched dataset contained quantification information for 46577 phosphorylated peptides forms, representing 22161 peptide sequences from 5154 proteins. The whole proteome dataset table contained quantification for 7654 genes.
# metastatic RCC = settings: everolimus versus sunitinib; literature ref 85; cited from earlier work
# [2] = tested on: metastatic papillary RCC cell line ACHN1; test: Cell viability by CellTiter-Glo assay; format: cell-based; settings: 120 hrs incubation; for effect on cell viability: FIG. 23D
# Method: (§1) The cell viability was determined by CellTiter-Glo assays (Promega). Cells were seeded in 96-well plates (3000 cells per well) in respective culture medium. After 24 hrs incubation, a serial dilution of compounds was added into plates with six replications for each dose. After 120 hrs incubation, the CellTiter-Glo assays were performed based on the manufacturer's instruction to analyze cell proliferation rates. The bioluminescence signal was acquired by the Infinite M1000 Pro plate reader (Tecan). The data were analyzed by GraphPad Prism software (GraphPad Software).
# [3] = tested on: Akt signaling pathway in 786-O cells; test: Western blot analysis of Akt signaling; format: cell-based; settings: FIG. 18L
# Method: (§2) 786-O cells were maintained in Gibco RPMI-1640 supplemented with 10% FBS. CAS 668467-91-2 (UCHL-1 inhibitor) was purchased from Sigma-Aldrich (L4170) and its impact on cell viability was evaluated. Briefly, 2000 cells were seeded on white flat bottom 96 well plates and were treated with increasing concentrations of the inhibitor for a week. CellTiter-Glo Luminescent Cell Viability Assay (Promega) was used to assess cell viability and IC-50 was calculated using a graph pad. Impact of UCHL-1 inhibitor on cell morphology was evaluated using IncuCyte ZOOM assay. For western blot analysis, cell lysates were harvested from control and UCHL-1 treated 786-O cells. Following protein quantification, lysates were resolved in NuPAGE Bis-Tris Protein Gel (ThermoFisher Scientific), transferred on to nitrocellulose membranes, blocked with 5% milk, and incubated overnight with UCHL-1 antibody (HPA005993, Sigma-Aldrich). Following day, membranes were washed with TBST buffer, incubated with HRP-conjugated secondary antibodies, washed, and imaged using Odyssey Fc imager (LiCOR Biosciences).
# 786-O renal cancer cells [4] = test: CellTiter-Glo Luminescent Cell Viability Assay; format: cell-based; settings: increasing concentrations for a week, FIG. 18J
# Method: as §2
# [5] = tested on: neuroblastoma cell line NB1 (NB-1); test: Cell viability by CellTiter-Glo assay; format: cell-based
# Method: as §1
# ccRCC cell line Caki-1 = test: In vitro drug treatment and growth inhibition assessment (AlamarBlue cell viability); format: cell-based; settings: 1, 5, 25 μM, treatment 7 days, FIG. 18J
# Method: (§3) The ccRCC cell line Caki-1 and a control cell line HK-2 were maintained in Dulbecco's Modified Eagle Medium/Nutrient Mixture F-12 (DMEM/F-12) culture medium (Gibco-11320033) supplemented with 10% FBS (Sigma, F-9665) and 1% Pen Strep (Gibco, 10,000 U/mL-15140122). All cell lines were seeded at 50,000 cells/well in duplicates in 24-well plates at day 0 and were treated with either UCHL1 inhibitor (CAS 668467-91-2-Calbiochem, Sigma Aldrich-662086-10 MG) or GLUL inhibitor (L-Methionine sulfoximine, Sigma Aldrich-M5379-500 MG) upon reaching 50-60% confluency at day 3 in culture. For both UCH-L1inhibitor or GLUL inhibitor treatment, the working concentrations were used at 1 μM, 5 μM, and 25 μM. Treatment was maintained in culture for a total of 7 days and growth inhibition assessment was performed using AlamarBlueTM Cell Viability Reagent (Invitrogen-DAL1025) at a ratio of 1:10 for 4 hours according to the manufacturer's protocol. Plots and IC50 concentrations were produced in Prism GraphPad (version 9.2.0) by plotting the percent growth inhibition on the y-axis and the Log (concentration) on the x-axis. The corresponding IC50 was extracted from the nonlinear regression curve fitting analysis using Prism GraphPad. Cells treated with only a growth medium without any drugs were used as negative controls.
# [6] = tested on: normal kidney HK-2 cell line; test: as above; format: cell-based; settings: HK-2 normal kidney control; 1, 5, 25 μM; treatment 7 days
# Method: as §3
# 786-O renal cancer cells [7] = test: Cell morphology by IncuCyte ZOOM assay; format: cell-based; settings: 30 μM, 24 hr, FIG. 18K
# Method: as §2
# skrc42.EV = settings: FIG. 21G
# Method: as §3
smiles,measurement,setting,value
CC(C)n1nc(-c2ccc3oc(N)nc3c2)c2c(N)ncnc21 [TAK-228],response among the five kinase inhibitors (phosphorylation of downstream targeted substrates),[1],showed better responses
same,phosphorylation of signaling-related downstream substrates,[1],"reduced phosphorylation of the mTOR complex component, AKT1S1, and its downstream phospho-substrate target, EIF4EBP1"
CO[C@H]1C[C@@H]2CC[C@@H](C)[C@@](O)(O2)C(=O)C(=O)N2CCCC[C@H]2C(=O)O[C@H]([C@H](C)C[C@@H]2CC[C@@H](OCCO)[C@H](OC)C2)CC(=O)[C@H](C)/C=C(\C)[C@@H](O)[C@@H](OC)C(=O)[C@H](C)C[C@H](C)/C=C/C=C/C=C/1C [everolimus],therapeutic value / response in metastatic RCC,metastatic RCC,relatively poor response
same,phosphorylation of signaling-related downstream substrates,[1],minimal impact
C#CCN(C)Cc1ccccc1 [pargyline],effect on cell viability,[2],no effect on cell viability; also recorded: did not affect
CC(=O)ON=C1C(=O)N(Cc2cc(Cl)ccc2Cl)c2ccc(Cl)cc21 [CAS 668467-91-2],activation of the Akt signaling pathway,[3],suppressed activation of the Akt signaling pathway in a dose-dependent manner
same,inhibition of cell viability,786-O renal cancer cells [4],dose-dependent inhibition of cell viability
same,effect on cell viability,"[5]; NB-1, FIG. 23D right",dramatic effects
same,IC50,[5]; neuroblastoma cell line NB1,1.6 µM
same,IC50,[2]; FIG. 23D middle,0.65 µM
same,effect on cell viability,[2]; listed as UCHL1 inhibitor,dramatic effects; also recorded: dramatic decrease in cell viability
same,inhibition of cell viability,ccRCC cell line Caki-1,dose-dependent inhibition of cell viability
same,sensitivity of cell viability to treatment,[6],resistant to the treatment
same,cell morphology,786-O renal cancer cells [7],altered morphology being elongated and stressed
C=CCn1c(=O)c2cnc(Nc3ccc(N4CCN(C)CC4)cc3)nc2n1-c1cccc(C(C)(C)O)n1 [AZD-1775],response among the five kinase inhibitors (phosphorylation of downstream targeted substrates),[1],showed better responses
same,phosphorylation of signaling-related downstream substrates,[1],reduced CDK1 phosphorylation levels in all five cell lines
COc1cc2ncnc(Nc3ccc(F)c(Cl)c3)c2cc1OCCCN1CCOCC1 [gefitinib],phosphorylation of signaling-related downstream substrates,[1],minimal impact
CS(=N)(=O)CC[C@H](N)C(=O)O (stereo partly drawn) [L-Methionine sulfoximine],sensitivity of cell viability to treatment,[6],not sensitive to the treatment
same,response of cell viability to anti-GLUL treatment,skrc42.EV,responded to the anti-GLUL treatment
